{"source": "paper PMC11243530", "about": "(Molecules, 2024)", "key": {"KOR [1]": {"test_system": "KOR", "design": "method as in PMID 34162205", "details": "ref [23]; read-out: KOR agonist potency EC50; cited from earlier work"}, "KOR [2]": {"biological_target": "KOR", "design": "method as in PMID 34162205", "details": "ref [23]; cited from earlier work"}, "cloned rat KOR [3]": {"biological_target": "T1, cloned rat KOR (Rattus norvegicus, UniProt P34975)", "T1 construct": "expressed in transfected cells", "details": "read-out: KOR Ki ± SEM; cited from earlier work"}, "[4]": {"test_system": "stress-induced reinstatement of cocaine-seeking behavior", "details": "mouse conditioned place preference; i.c.v.; ref [7]; cited from earlier work"}, "ẟ opioid receptor (DOR)": {"biological_target": "ẟ opioid receptor (DOR)", "details": "ref [6]; cited from earlier work"}, "KOR [5]": {"test_system": "KOR", "details": "[^35S]GTPγS binding assay; known comparator; cited from earlier work"}, "[6]": {"test_system": "KOR (antagonism of U50,488 antinociception)", "details": "mouse 55 °C warm-water tail withdrawal; i.c.v.; ref [7]; cited from earlier work"}, "KOR [7]": {"test_system": "KOR", "details": "ref [6]; cited from earlier work"}, "proteases": {"test_system": "proteases", "details": "linear peptide; general statement; cited from earlier work"}, "KOR [8]": {"test_system": "KOR", "assay": "Dynorphin-stimulated [^35S]GTPγS assay, KOR antagonism (Schild analysis)", "assay_type": "biochemical", "details": "for agonist activity / type of antagonism at KOR: [^35S]GTPγS binding assay"}, "cloned rat KOR [9]": {"biological_target": "T1, cloned rat KOR", "assay": "Radioligand binding, competitive inhibition of [^3H]diprenorphine, KOR"}, "cloned rat MOR": {"biological_target": "T2, cloned rat MOR (Rattus norvegicus, UniProt P33535)", "T2 construct": "expressed in transfected cells", "assay": "Radioligand binding, competitive inhibition of [^3H]DAMGO, MOR"}, "KOR [10]": {"test_system": "KOR", "details": "following a single injection; ref [4]; cited from earlier work", "excerpt": "Recently, antagonists of the kappa opioid receptor (KOR) have attracted significant attention due to their potential use in treating various central nervous system (CNS) disorders, especially mood disorders and substance abuse. […] Consequently, there has been a growing interest in KOR antagonists, including peptide KOR antagonists, with m ..."}}, "note": "Where two headings read alike, the source gives them in different places. Positions of bridges follow the written chain, without caps; N, C: chain ends. Non-standard residues stand in square brackets, D forms with d. Residues, ends and D or L forms follow the SMILES beside them. No end group written: not given here. *: point of attachment. X1 = CC(=O)N[C@@H](Cc1ccccc1)C(=O)N[C@H]1Cc2ccc(cc2)OC/C=C/COc2ccc(cc2)C[C@@H](C(=O)*)NC1=O; AllylGly = C=CC[C@H](N)C(=O)O"}
{"compound": "dynorphin A-(1–13)-NH2: KOR agonist reference peptide (YGGFLRRIRPKLK-NH2; UniProt P01213 207-219, looked up, fragment)", "values": [{"measurement": "EC50", "setting": "KOR [1]", "value": 0.0028, "unit": "µM"}, {"measurement": "Ki", "setting": "KOR [2]", "value": 0.0003, "unit": "µM"}]}
{"compound": "3: monocyclic arodyn analog, RCM cyclization between Tyr(All) residues in positions 2 and 3 (FYYRLRRARPK) [Peptide 3]", "values": [{"measurement": "Ki", "setting": "cloned rat KOR [3]", "value": "0.0554 ± 0.0041", "unit": "µM"}]}
{"compound": "Ac[Phe^1,2,3,Arg^4,D-Ala^8]dynorphin A-(1–11)-NH2 [arodyn]", "values": [{"measurement": "reinstatement of cocaine-seeking behavior induced by stress", "setting": "[4]", "value": "prevented the reinstatement of cocaine-seeking behavior induced by stress"}, {"measurement": "Ki", "setting": "ẟ opioid receptor (DOR)", "value": "> 5", "unit": "µM"}, {"measurement": "agonist activity / type of antagonism at KOR", "setting": "KOR [5]", "value": "did not exhibit appreciable agonist activity and functioned as a potent competitive KOR antagonist"}, {"measurement": "antagonism of antinociception produced by U50,488", "setting": "[6]", "value": "antagonized antinociception produced by the KOR-selective agonist U50,488"}, {"measurement": "KOR antagonism in vitro", "setting": "KOR [7]", "value": "potent KOR antagonist in vitro"}, {"measurement": "susceptibility to proteolysis", "setting": "proteases", "value": "susceptible to rapid breakdown by proteases"}]}
{"compound": "CC(=O)N[C@@H](Cc1ccccc1)C(=O)N[C@H]1Cc2ccc(cc2)OC/C=C/COc2ccc(cc2)C[C@@H](C(=O)N[C@@H](CCCNC(=N)N)C(=O)N[C@H]2CC=CC[C@@H](C(=O)N[C@@H](CCCNC(=N)N)C(=O)N3CCC[C@H]3C(=O)N[C@@H](CCCCN)C(N)=O)NC(=O)[C@H](CCCNC(=N)N)NC(=O)[C@H](CCCNC(=N)N)NC2=O)NC1=O", "note": "[Peptide 4] (X1-R[AllylGly]RR[AllylGly]RPK-NH2; staple 2-5)", "values": [{"measurement": "agonist activity / type of antagonism at KOR", "setting": "KOR [8]", "value": "did not exhibit appreciable agonist activity and functioned as a potent competitive KOR antagonist"}, {"measurement": "agonist activity / type of antagonism at KOR", "setting": "KOR [8]; listed as bicyclic analog", "value": "exhibits potent KOR antagonism"}, {"measurement": "Kb", "setting": "KOR [8]; dynorphin A-(1–13)-NH2-stimulated [^35S]GTPγS binding, KOR membranes, peptidase inhibitors present, four concentrations 1–1000 nM of 4, Schild analysis, mean values from 4 independent experiments", "value": 0.0009, "unit": "µM"}, {"measurement": "KOR affinity and KOR antagonism relative to monocyclic analogs", "setting": "KOR [8]; dynorphin-stimulated [^35S]GTPγS assay and KOR binding", "value": "comparable to monocyclic analogs"}, {"measurement": "Ki", "setting": "cloned rat KOR [9]", "value": "0.0264 ± 0.0059", "unit": "µM"}, {"measurement": "KOR selectivity over MOR", "setting": "cloned rat KOR [9]; MOR Ki / KOR Ki", "value": 97, "unit": "fold"}, {"measurement": "Ki Ratio (MOR/KOR)", "setting": "cloned rat KOR [9]; MOR Ki / KOR Ki", "value": 97}, {"measurement": "Ki", "setting": "cloned rat MOR", "value": "2.57 ± 0.5", "unit": "µM"}]}
{"compound": "CC(C)[C@@H](CN1CC[C@@](C)(c2cccc(O)c2)[C@@H](C)C1)NC(=O)[C@H]1Cc2ccc(O)cc2CN1", "note": "[JDTic]", "values": [{"measurement": "duration of action", "setting": "KOR [10]", "value": "exhibited prolonged effects, with their action extending from days to weeks"}]}
